# System: human maximum recommended daily dose, FDA database
# Assay: DSSTox (FDAMDD) FDA Maximum (Recommended) Daily Dose Database
# Conditions: hits give low values
# In short: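 MRDD values come from clinical trials with daily oral dosing, usually for 3–12 months, for the average adult, in mg/day converted to mg/kg-bw/day assuming 60 kg. Antineoplastic mg/m2 doses are divided by 37. Activity score maps log10(1/MRDD mmol) onto 1–100.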
# [1] = TherapeuticCategory: antibacterial
# [2] = TherapeuticCategory: narcotic analgesic
# [3] = TherapeuticCategory: antineoplastic
# [4] = TherapeuticCategory: antidepressant
smiles,measurement,setting,value
C[C@]12CC[C@@H]3c4ccc(OC(=O)Cc5ccc(N(CCCl)CCCl)cc5)cc4CC[C@H]3[C@@H]1CC[C@@H]2OC(=O)Cc1ccc(N(CCCl)CCCl)cc1,maximum recommended daily dose (mmol/kg-bw/day),TherapeuticCategory: estrogen,0.0211
C[N+](C)(C)CCOC(=O)CCC(=O)OCC[N+](C)(C)C,maximum recommended daily dose (mmol/kg-bw/day),TherapeuticCategory: skeletal muscle relaxant,0.00304
CC(C[N+](C)(C)C)OC(N)=O (configuration not stated),maximum recommended daily dose (mmol/kg-bw/day),TherapeuticCategory: cholinergic,0.0169
CCOC(=O)C1=C[C@]2(CC)CCCN3CCc4c(n1c1ccccc41)[C@@H]32,maximum recommended daily dose (mmol/kg-bw/day),TherapeuticCategory: cerebral vasodilator,0.00143
Cc1nnc(SCC2=C(C(=O)O)N3C(=O)[C@@H](NC(=O)Cn4cnnn4)[C@H]3SC2)s1,maximum recommended daily dose (mmol/kg-bw/day),[1],0.147
Cc1oncc1C(=O)Nc1ccc(C(F)(F)F)cc1,maximum recommended daily dose (mmol/kg-bw/day),"TherapeuticCategory: antirheuematic, immunosuppressant",0.00123
CCOC(=O)/C=C(C)/C=C/C=C(C)/C=C/c1c(C)cc(OC)c(C)c1C,maximum recommended daily dose (mmol/kg-bw/day),TherapeuticCategory: antipsoriatic,0.00423
COc1ccc(CN(CCN(C)C)c2ccccn2)cc1,maximum recommended daily dose (mmol/kg-bw/day),TherapeuticCategory: antihistaminic,0.00438
CC(=O)Nc1ccccc1,maximum recommended daily dose (mmol/kg-bw/day),"TherapeuticCategory: antipyretic, analgesic",0.037
O=C(Cn1c(=O)sc2ccc(Cl)cc21)N1CCN(CCO)CC1,maximum recommended daily dose (mmol/kg-bw/day),"TherapeuticCategory: antiasthmatic, anti inflammatry",0.0141
C[C@H](CN1CCOCC1)C(C(=O)N1CCCC1)(c1ccccc1)c1ccccc1,maximum recommended daily dose (mmol/kg-bw/day),[2],0.000848
NC[C@H](O)c1ccc(O)c(O)c1,maximum recommended daily dose (mmol/kg-bw/day),"TherapeuticCategory: adrenergic, antihypotensive",0.000394
C[C@]12CCC(=O)C=C1CC[C@@H]1[C@@H]2[C@@H](O)C[C@]2(C=O)[C@@H](C(=O)CO)CC[C@@H]12,maximum recommended daily dose (mmol/kg-bw/day),TherapeuticCategory: mineralcorticoid,2.31e-05
COc1ccc2c(c1)N(C[C@H](C)CN(C)C)c1ccccc1S2,maximum recommended daily dose (mmol/kg-bw/day),TherapeuticCategory: analgesic,0.0101
CCO,maximum recommended daily dose (mmol/kg-bw/day),TherapeuticCategory: topical antiseptic,2.17
CN(N=O)C(=O)N[C@@H]1[C@@H](O)[C@H](O)[C@@H](CO)O[C@@H]1O,maximum recommended daily dose (mmol/kg-bw/day),[3],0.407
CCn1ccc(NS(=O)(=O)c2ccc(N)cc2)nc1=O,maximum recommended daily dose (mmol/kg-bw/day),[1],0.0567
CC(=O)O[C@H]1C[C@@]2(C)[C@@H](C[C@@H](O)[C@H]3[C@@]4(C)CC[C@@H](O)[C@@H](C)[C@@H]4CC[C@@]32C)/C1=C(\CCC=C(C)C)C(=O)O,maximum recommended daily dose (mmol/kg-bw/day),[1],0.0484
CC(C)(O)CC(C)(O)c1ccc(Cl)cc1 (configuration not stated),maximum recommended daily dose (mmol/kg-bw/day),[4],0.0437
CCC(=O)O[C@](Cc1ccccc1)(c1ccccc1)[C@H](C)CN(C)C,maximum recommended daily dose (mmol/kg-bw/day),[2],0.0191
CC(=O)N[C@H]1[C@H]([C@H](O)[C@H](O)CO)OC(C(=O)O)=C[C@@H]1N=C(N)N,maximum recommended daily dose (mmol/kg-bw/day),TherapeuticCategory: neuraminidase inhibitors,0.001
CNC(=O)c1c(I)c(C(=O)NCC(=O)Nc2c(I)c(C(=O)O)c(I)c(C(=O)NCCO)c2I)c(I)c(N(C)C(C)=O)c1I,maximum recommended daily dose (mmol/kg-bw/day),TherapeuticCategory: diagnostic aid,0.0788
CCOC(C)=O,maximum recommended daily dose (mmol/kg-bw/day),TherapeuticCategory: none,0.284
Cn1c(=O)c2[nH]cnc2n(C)c1=O,maximum recommended daily dose (mmol/kg-bw/day),TherapeuticCategory: bronchodilator,0.0481
O=C(O)CN(CCN(CC(=O)O)CC(=O)O)CCN(CC(=O)O)CC(=O)O,maximum recommended daily dose (mmol/kg-bw/day),TherapeuticCategory: chelating agent,0.0425
NCCC(O)(P(=O)(O)O)P(=O)(O)O,maximum recommended daily dose (mmol/kg-bw/day),TherapeuticCategory: antipagetic,0.00638
COc1cc([C@@H]2c3cc4c(cc3C(O[C@@H]3O[C@@H]5CO[C@@H](C)O[C@H]5[C@H](O)[C@H]3O)C3COC(=O)[C@@H]32)OCO4)cc(OC)c1O (some centres not stated),maximum recommended daily dose (mmol/kg-bw/day),[3],0.00459
NS(=O)(=O)c1ccc(N2CCCCS2(=O)=O)cc1,maximum recommended daily dose (mmol/kg-bw/day),TherapeuticCategory: anticonvulsant,0.0344
C[N+](C)(C)CC(O)CC(=O)[O-] (configuration not stated),maximum recommended daily dose (mmol/kg-bw/day),TherapeuticCategory: antihyperlipoproteinemic,0.104
O[C@H]([C@H](O)[C@@H](O)CBr)[C@H](O)CBr,maximum recommended daily dose (mmol/kg-bw/day),[3],0.0158
CNCCC(Oc1ccc(C(F)(F)F)cc1)c1ccccc1 (configuration not stated),maximum recommended daily dose (mmol/kg-bw/day),[4],0.0043
CCOC(=O)c1cncn1C(C)c1ccccc1 (configuration not stated),maximum recommended daily dose (mmol/kg-bw/day),TherapeuticCategory: anticholinergic,0.00246
O=C(O)c1ccccc1C(=O)Nc1ccc(S(=O)(=O)Nc2nccs2)cc1,maximum recommended daily dose (mmol/kg-bw/day),[1],0.496
CN(C)c1nc(N(C)C)nc(N(C)C)n1,maximum recommended daily dose (mmol/kg-bw/day),[3],0.0257
NS(=O)(=O)c1cc(Cl)c(Cl)c(S(N)(=O)=O)c1,maximum recommended daily dose (mmol/kg-bw/day),TherapeuticCategory: carbonic anhydrase inhibitor,0.0109
CCCCNc1ccc(C(=O)OCCOCCOCCOCCOCCOCCOCCOCCOCCOC)cc1,maximum recommended daily dose (mmol/kg-bw/day),TherapeuticCategory: antitussive,0.0166
CCN(CC)CCOC(=O)C(O)(c1ccccc1)c1ccccc1,maximum recommended daily dose (mmol/kg-bw/day),"TherapeuticCategory: antidepressant, anticholinergic",0.000458
